Results: patent publication US9931287B2, “Simple micro-particulate suspension of behentrimonium chloride with favorable distributive and adsorptive properties” (Formula XO, Inc., priority 2013, dated 2018)

What was measured:
[1] = Appearance of solutions after cooling to room temperature; format: physicochemical; details: cooled from 85° C. to room temperature
Method: A solution of BC is prepared by adding 20 grams BTMC-85 (Mason chemical company, 80% active by weight) to 330 ml of water and heating to 85° C. 50 grams of DPLC (SL-5, Mason chemical company, 35% active by weight) is added. The solution is clear and a slight yellow in color. A solution of BC is prepared in water as above but without addition of DPLC. Both solutions are cooled to room temperature.

[2] = Spraying onto a clear glass surface held perpendicular to the ground (retention); format: physicochemical; details: sprayed on clear glass held perpendicular to the ground; same BC concentration
Source text: A BC/DPLC suspension prepared as in Example 1 and a BC solution (at the same concentration) are sprayed on to a clear glass surface held perpendicular to the ground. The liquids run freely downward. […] This teaches that spraying of the BC/DPLC formulation achieves the desired benefit, as expected in its use on hair and skin.

[3] = Spraying of formulations onto surface of a pan of water (dilution stability of aggregates); format: physicochemical; details: mixed vigorously, sprayed onto surface of a pan of water at room temperature (20° C.)
Method: The two formulations are each mixed vigorously to disperse their contents and then sprayed onto the surface of a pan of water at room temperature (20° C.).

wet hair of individuals = assay: Spraying onto the wet hair of individuals; format: in vivo; details: sprayed onto wet hair, left on while hair dried, combed and brushed while damp
Method: A suspension of BC/DPLC was prepared as described in Example 1. It was sprayed onto the wet hair of individuals and left on while the hair dried. The hair was combed and brushed while still damp.
A solution of BC, equal in the concentration BC as in Example 1, was also sprayed on the wet hair of an individual, as described above.

## CCCCCCCCCCCCCCCCCCCCCC[N+](C)(C)C [BC, Behentrimonium chloride (N,N,N-trimethyldocosan-1-aminium chloride]
[1]
  appearance of solution after cooling: forms a uniform milky suspension
[2]
  appearance of glass surface after liquid runs off: clear
[3]
  behaviour on dilution in water: gradually diffuses down into the water layer resulting in a nearly clear, transparent solution
Wet hair of individuals
  feel of hair: oily, and lacked the feel and management properties of the BC/DPLC formulation
